Measured values as given in patent publication US7815942B2, “Rasagiline formulations of improved content uniformity” (Teva Pharmaceutical Industries, Ltd., priority 2005, dated 2010).
Read-outs that look alike come from different tables or passages of the source.

Key:
[1] = Particle size distribution by Malvern laser diffraction (Mastersizer S); type: physicochemical; settings: average of two measurements
Procedure: Many analytical tools are available to determine PSD. In the early development stage, the analysis of PSD was performed through microscopic and sieve analysis. Laser diffraction was chosen as the final analytical method for measuring the PSD. Because the large particles were of major concern, the important characteristics of the PSD were the d(0.9), which is the size, in microns, below which 90% of the particles by volume are found, and the d(0.1), which is the size, in microns, below which 10% of the particles by volume are found.
R(+)PAI mesylate samples before milling contain large, irregular, plate-shaped particles of various sizes (See FIG. 1). PSDs of four different batches were measured before milling and after milling. The PSDs were measured using Malvern Laser Diffraction, using the Mastersizer S model. Laser diffraction relies on the fact that diffraction angle of light is inversely proportional to particle size. Properties of particles are measured and interpreted as measurements of a sphere (a sphere being the only shape that can be described by one unique number). In addition, laser diffraction calculates a particle size distribution based around volume terms, thus eliminating particle count from the determination of particle size. The Masterizer S model measures particles using a single technique and a single range setting.
The values in the table represent averages of two measurements. Each measurement was taken after 3 minutes of recirculation with the speed control at the 14 hour position. The dilution medium was a 1% solution of dioctyl sulfosuccinate sodium salt in n-hexane. The concentration of drug substance used in the measurements was between 0.05% and 0.35% by volume. The results were confirmed with microscopic observation. For optical microscopy, an emulsion or suspension, diluted or undiluted, was mounted on a slide or ruled cell. The microscope eyepiece was fitted with a micrometer by which the size of the particles may be estimated.
D(0.1) is the particle size, in microns, below which 10% by volume distribution of the population is found, and d(0.9) is the particle size, in microns, below which 90% by volume distribution of the population is found. […]

[2] = 18-year study, subjects, cited from earlier work
[3] = compared with the microcrystalline form; cited from earlier work

## C#CCN[C@@H]1CCc2ccccc21.CS(=O)(=O)O [Batch D197/197]
[1]; listed as D197/197
  d (0.1) after milling: 14 microns
  d (0.9) after milling: 168 microns
  d (0.1) before milling: 21 microns
  d (0.9) before milling: 443 microns

## C#CCN[C@@H]1CCc2ccccc21.CS(=O)(=O)O [Batch D211/212]
[1]; listed as D211/212
  d (0.1) after milling: 16 microns
  d (0.9) after milling: 189 microns
  d (0.1) before milling: 104 microns
  d (0.9) before milling: 598 microns

## C#CCN[C@@H]1CCc2ccccc21.CS(=O)(=O)O [Batch D222/223]
[1]; listed as D222/223
  d (0.1) after milling: 10 microns
  d (0.9) after milling: 156 microns
  d (0.1) before milling: 18 microns
  d (0.9) before milling: 573 microns

## C#CCN[C@@H]1CCc2ccccc21.CS(=O)(=O)O [Batch D297/297]
[1]; listed as D297/297
  d (0.1) after milling: 11 microns
  d (0.9) after milling: 160 microns
  d (0.1) before milling: 20 microns
  d (0.9) before milling: 386 microns

## O=C1CN(/N=C/c2ccc([N+](=O)[O-])o2)C(=O)N1 [macrocrystalline form of Nitrofurantoin, Nitrofurantoin]
[2]; listed as macrocrystalline form
  negative side effects (adverse events) such as nausea and gastro-intestinal problems: did not manifest
[3]
  dissolution and absorption rates: slower
  serum concentrations: lower
  time to achieve peak concentration in urine: takes longer

## O=C1CN(/N=C/c2ccc([N+](=O)[O-])o2)C(=O)N1 [microcrystalline form, Nitrofurantoin]
[2]
  negative side effects (adverse events) such as nausea and gastro-intestinal problems: produces negative side effects
